The subject of one data set is MPLW515L mice. In words: MPLW515L mutant MPN mouse model. The data set is classed as in vivo. The note with it: oral gavage, FIG. 2D.
Data set [1] relates to ERK downstream targets RSK3 and DUSP6. In words: ERK signaling in splenocytes of Jak2V617F mice by Western blot. In kind it is in vivo, mouse. To be noted: FIG. 2A. For orientation: In western blotting, separated proteins are transferred to a membrane and probed.
The test system of data set [2] is Ba/F3 cell line stably expressing erythropoietin receptor (EpoR) and Jak2V617F. Briefly: Antiproliferative activity, CellTiter-Glo viability assay at 48h, Ba/F3 EpoR Jak2V617F. In kind it is cell-based, murine. To be noted: EpoR Jak2V617F mutant Ba/F3 cells; FIG. 6. On the procedure:
(§1) To assess anti-proliferative effects of inhibitors, cells were seeded at 10′000/200 ul with increasing inhibitor concentrations in triplicate. Proliferation was assessed at 48h using the CellTiter-Glo viability assay (Promega) and normalized to cell growth in medium with equivalent volume of DMSO.

Data set [3] deals with JAK2V617F PV/MF mouse model. In words: JAK2V617F PV/MF mouse model, 14 consecutive days oral dosing (Example 3). The note with it: ruxolitinib 60 mg/kg BID, Compound A 75 mg/kg QD, 14 days; for body weight change: FIG. 4A; for bone marrow cellularity / bone marrow toxicity: FIG. 4B; for WBC count: FIG. 4C; for platelet count: FIG. 4D; for elevated hematocrit / splenomegaly: vs vehicle; for elevated hematocrit: FIG. 3A; for splenomegaly: FIG. 3B. The source says:
For treatment studies, bone marrow (BM) from primary Jak2V617F Vav-Cre CD45.2 mice was mixed 1:1 with Jak2 wild-type CD45.1 BM and transplanted into lethally irradiated CD45.1 recipients. Development of the MPN phenotype was confirmed by peripheral blood counts 2 months after BM transplantation. Mice were randomized to treatment groups according to blood counts and treated by oral gavage for 1-4 weeks.

The next data set deals with Jak2V617F mice. Briefly: Jak2V617F knock-in mouse model (polycythemia vera phenotype), competitive BM transplant. The note with it: for reduction of hematocrit: Example 4, FIG. 5B. In kind it is in vivo.
The subject of data set [4] is Ba/F3 cell line stably expressing erythropoietin receptor (EpoR) and wild-type JAK2. Briefly: Antiproliferative activity, CellTiter-Glo viability assay at 48h, Ba/F3 EpoR wild-type JAK2. The data set is classed as cell-based, murine. The note with it: EpoR Jak2 wild type Ba/F3 cells; FIG. 6. On the procedure: as §1
In general terms: In ATP-based viability assays light output follows the ATP content of the culture.

Data set [5] has as its system CD34+ peripheral blood mononuclear cells (PBMCs) of a MF patient. Briefly: Colony growth from CD34+ PBMCs of a MF patient. The data set is classed as cell-based, human. To be noted: FIG. 5A.

“Also recorded” adds a separate entry of the source.

The values that follow come from patent publication US20230372334A1, “USE OF AN ERK INHIBITOR FOR THE TREATMENT OF MYELOFIBROSIS” (Novartis AG, priority 2020, published 2023).

In the case of `CNC[C@@H](NC(=O)c1ccc(-c2nc([C@H]3CC[C@H](O)[C@@H](F)C3)cnc2N)cc1F)c1cc(F)cc(Br)c1` [Compound A, 4-(3-amino-6-((1S,3S,4S)-3-fluoro-4-hydroxycyclohexyl)pyrazin-2-yl)-N-((S)-1-(3-bromo-5-fluorophenyl)-2-(methylamino)ethyl)-2-fluorobenzamide], in the data set on MPLW515L mice, the “correction of leukocytosis (WBC count)” value is listed as “ruxolitinib was superior to that of Compound A”. The “activation of ERK downstream targets RSK3 and DUSP6” value in data set [1] is “inhibited activation”. Moreover, in data set [2], the “suppression of proliferation (decrease in IC50 value)” value is “ruxolitinib was superior to that of Compound A”. For the same compound, in data set [3], the polycythemia entry is “significantly normalizes”, the tolerability entry was “well tolerated”, the body weight change result is listed as “lack of body weight loss” and the “bone marrow cellularity / bone marrow toxicity” value was “absence of bone marrow toxicity”. Further, in data set [3], the WBC count result is given as “normal”, the platelet count result is listed as “normal; also recorded: absence of thrombocytopenia”, the elevated hematocrit result is “significantly normalized; also recorded: significantly reduced; also recorded: reduces” and the splenomegaly entry is given as “significantly normalizes; also recorded: significantly reduced”. Besides, the reduction of hematocrit result with Jak2V617F mice is reported as “comparable reduction”. The “polyglobulia or polycythemia (hematocrit levels)” value in the data set with Jak2V617F mice (oral gavage, FIG. 2B) is listed as “potently corrected”. For the same compound, the “splenomegaly (spleen weight)” value in the data set on Jak2V617F mice (oral gavage, FIG. 2C) is listed as “potently corrected”. The “suppression of proliferation (decrease in IC50 value)” value in data set [4] is reported as “ruxolitinib was superior to that of Compound A”. For the same compound, in data set [5], the “growth of colonies derived from CD34+ PBMCs” value is given as “comparably suppressed growth”.

For the compound `N#CC[C@H](C1CCCC1)n1cc(-c2ncnc3[nH]ccc23)cn1` [ruxolitinib, (R)-3-(4-(7H-pyrrolo[2,3-d]pyrimidin-4-yl)-1H-pyrazol-1-yl)-3-cyclopentylpropanenitrile, reference compound], in the data set with MPLW515L mice, the “correction of leukocytosis (WBC count)” value is recorded as “superior to that of Compound A”. Also, in data set [3], the polycythemia entry was “significantly normalized”, the tolerability entry is reported as “well tolerated”, the body weight change entry is listed as “lack of body weight loss” and the “bone marrow cellularity / bone marrow toxicity” value is on record as “absence of bone marrow toxicity”. Further, in data set [3], the WBC count result is “normal”, the platelet count entry is reported as “normal; also recorded: absence of thrombocytopenia”, the elevated hematocrit entry was “significantly normalized” and the splenomegaly entry was “significantly normalized”. Further, in data set [3] (listed as Ruxolitinib), the elevated hematocrit result is “significantly reduced” and the splenomegaly entry is “significantly reduced”. Also, in the data set on Jak2V617F mice, the reduction of hematocrit result is “comparable reduction”. In data set [5], the “growth of colonies derived from CD34+ PBMCs” value is “comparably suppressed growth”.
